Measurements taken from patent US6372297B1, “Wood preservative oxathiazines” (Uniroyal Chemical Company, Inc., priority 1993, dated 2002).
Read-outs that look alike come from different tables or passages of the source.

Columns and labels:
Assay type in all cases: cell-based
Bacillus cereus mycoides = tested on: Bacillus cereus mycoides; parameters: scale not given here
Aureobasidium pullulans = assay: Wood preservative efficacy against fungi, agar plate colony diameter; parameters: key: 1=25%, 2=50%, 3=75%, 4=100% of untreated growth; lower better
Protocol: (§1) The compounds shown in Table 1 were dissolved in 50% ethanol and then diluted with sterile water to give the required concentrations of 1 and 10 ppm in the test agar plates. Malt extract sugar (3%) was added aseptically and uniform distribution was obtained by shaking. Each plate was inoculated with a spore suspension or with a small piece of agar (1 mm) from the margin of an actively growing colony of the test fungus. The fungi employed are listed below. After incubation at 22° C. and 70% relative humidity during a period long enough to allow significant growth of untreated controls, the diameters of the fungus colonies were measured and scored using the following rating system:
(§2) 1=25% of fungal growth compared to untreated
(§3) 2=50% of fungal growth compared to untreated
(§4) 3=75% of fungal growth compared to untreated
(§5) 4=Growth equal to that of untreated
(§6) In these Tables, the lower numbers are the most preferred species.

Pseudomonas alcaligenes = assay: Wood preservative efficacy against bacteria and yeasts, tryptose agar plates; parameters: key: 0 = growth equal to control, 1 = inhibition, 2 = no growth; conditions: 100 ppm in tryptose agar
Protocol: (§7) Compositions were prepared by dissolving the compounds shown in Table 1 in 50% ethanol and further diluting with sterile distilled water. […] After cooling, the medium was inoculated with the bacteria listed below. After sufficient growth of the untreated cultures, the compounds were evaluated using the following rating system: 0=growth equal to control 1=inhibition of growth by the compound 2=no growth under the influence of the compound. In this Table, the higher numbers are the most preferred species. Pseudomonas alcaligenes (gram neg)

Mucor sp. = assay: Wood preservative efficacy against fungi, agar plate colony diameter
Protocol: (§8) Each plate was inoculated with a spore suspension or with a small piece of agar (1 mm) from the margin of an actively growing colony of the test fungus. The fungi employed are listed below. After incubation at 22° C. and 70% relative humidity during a period long enough to allow significant growth of untreated controls, the diameters of the fungus colonies were measured and scored using the following rating system: 0=free of fungal growth 1=25% of fungal growth compared to untreated 2=50% of fungal growth compared to untreated 3=75% of fungal growth compared to untreated 4=Growth equal to that of untreated The scores measured for wood preservation efficacy of the compounds of this invention are listed in Tables 6a and 6b. In these Tables, the lower numbers are the most preferred species. Mucor sp.

Coniophora puteana = assay: as above; parameters: key: 0 = no fungal growth, 1-3 = 25/50/75% of untreated, 4 = equal
Protocol: as §8, with “Coniophora puteana (syn. C. cerebella)” for “Mucor sp.”

Trichoderma viride = assay: as above
Protocol: as §8, with “Trichoderma viride” for “Mucor sp.”

Flavobacterium sp. = assay: Wood preservative efficacy against bacteria and yeasts, tryptose agar plates; parameters: key: 0 = growth equal to control, 1 = growth inhibited, 2 = no growth
Protocol: as §7, with “Flavobacterium sp.” for “Pseudomonas alcaligenes”

Chaetomium globosum = assay: Wood preservative efficacy against fungi, agar plate colony diameter
Protocol: as §8, with “Chaetomium globosum” for “Mucor sp.”

Penicillium islandicum = assay: as above; parameters: key: 1 = 25%, 2 = 50%, 3 = 75%, 4 = 100% of untreated fungal growth
Protocol: as §1, §2, §3, §4, §5, §6

Coriolus versicolor = assay: as above; conditions: for Score of fungicidal activity, C. VERSICLOR: Test dosage 10 ppm, Table 6A; for Score of fungicidal activity, G. VERSICLOR: Table 6B
Protocol: as §8, with “Coriolus versicolor” for “Mucor sp.”

## CC(=O)c1ccc(C2=NOCC[S+]2[O-])cc1 (stereo not shown) [Compound 14]
Bacillus cereus mycoides; 10 ppm in tryptose agar
  Score of bactericidal activity, B. cereus mycoides: 2
Bacillus cereus mycoides; 100 ppm in tryptose agar
  Score of bactericidal activity, B. cereus mycoides: 2
Aureobasidium pullulans; Test dosage 10 ppm, Table 6A
  Score of fungicidal activity, A. PULLULANS: 4
Pseudomonas alcaligenes
  Score of bactericidal activity, P. alcalgenes: 1
Mucor sp.; Test dosage 10 ppm, Table 6A
  Score of fungicidal activity, MUCOR SP: 1 (25% of growth compared to untreated control)
Coniophora puteana; Test dosage 10 ppm, Table 6A
  Score of fungicidal activity, C. PUTEANA: 3 (75% of growth compared to untreated control)
Trichoderma viride; Test dosage 10 ppm, Table 6A
  Score of fungicidal activity, T. VIRIDE: 3 (75% of growth compared to untreated control)
Flavobacterium sp.; 100 ppm in tryptose agar
  Score of bactericidal activity, Flavobacter: 2
Chaetomium globosum; Test dosage 10 ppm, Table 6A
  Score of fungicidal activity, C. GLOBOSUM: 4
Penicillium islandicum; Test dosage 10 ppm, Table 6A
  Score of fungicidal activity, P. ISLANDICUM: 4
Coriolus versicolor
  Score of fungicidal activity, C. VERSICLOR: 2 (50% of growth compared to untreated control)

## [O-][S+]1CCON=C1c1cccs1 (stereo not shown) [Compound 8]
Bacillus cereus mycoides; 10 ppm in tryptose agar
  Score of bactericidal activity, B. cereus mycoides: 0
Bacillus cereus mycoides; 100 ppm in tryptose agar
  Score of bactericidal activity, B. cereus mycoides: 2
Aureobasidium pullulans; Test dosage 10 ppm, Table 6A
  Score of fungicidal activity, A. PULLULANS: 2 (50% of growth compared to untreated control)
Pseudomonas alcaligenes
  Score of bactericidal activity, P. alcalgenes: 2
Coniophora puteana; Test dosage 10 ppm, Table 6A
  Score of fungicidal activity, C. PUTEANA: 2 (50% of growth compared to untreated control)
Trichoderma viride; Test dosage 10 ppm, Table 6A
  Score of fungicidal activity, T. VIRIDE: 2 (50% of growth compared to untreated control)
Flavobacterium sp.; 100 ppm in tryptose agar
  Score of bactericidal activity, Flavobacter: 2
Chaetomium globosum; Test dosage 10 ppm, Table 6A
  Score of fungicidal activity, C. GLOBOSUM: 2 (50% of growth compared to untreated control)
Penicillium islandicum; Test dosage 10 ppm, Table 6A
  Score of fungicidal activity, P. ISLANDICUM: 0
Coriolus versicolor
  Score of fungicidal activity, C. VERSICLOR: 0

## C[S+]1CCON=C1c1ccc(Cl)cc1 (stereo not shown) [Compound 1]
Bacillus cereus mycoides; 10 ppm in tryptose agar
  Score of bactericidal activity, B. cereus mycoides: 2
Bacillus cereus mycoides; 100 ppm in tryptose agar
  Score of bactericidal activity, B. cereus mycoides: 2
Aureobasidium pullulans; Test dosage 10 ppm, Table 6A
  Score of fungicidal activity, A. PULLULANS: 3 (75% of growth compared to untreated control)
Pseudomonas alcaligenes
  Score of bactericidal activity, P. alcalgenes: 1
Coniophora puteana; Test dosage 10 ppm, Table 6A
  Score of fungicidal activity, C. PUTEANA: 2 (50% of growth compared to untreated control)
Trichoderma viride; Test dosage 10 ppm, Table 6A
  Score of fungicidal activity, T. VIRIDE: 2 (50% of growth compared to untreated control)
Flavobacterium sp.; 100 ppm in tryptose agar
  Score of bactericidal activity, Flavobacter: 2
Chaetomium globosum; Test dosage 10 ppm, Table 6A
  Score of fungicidal activity, C. GLOBOSUM: 0
Penicillium islandicum; Test dosage 10 ppm, Table 6A
  Score of fungicidal activity, P. ISLANDICUM: 0
Coriolus versicolor
  Score of fungicidal activity, C. VERSICLOR: 0

## CCOC(=O)c1ccc(C2=NOCC[S+]2[O-])cc1 (stereo not shown) [Compound 22]
Bacillus cereus mycoides; 10 ppm in tryptose agar
  Score of bactericidal activity, B. cereus mycoides: 2
Bacillus cereus mycoides; 100 ppm in tryptose agar
  Score of bactericidal activity, B. cereus mycoides: 2
Aureobasidium pullulans; 10 ppm, Table 6B
  Score of fungicidal activity, A. PULLULANS: 4
Pseudomonas alcaligenes
  Score of bactericidal activity, P. alcalgenes: 1
Mucor sp.; 100 ppm, Table 6B
  Score of fungicidal activity, MUCOR SP: 0
Coniophora puteana; 1 ppm, Table 6B
  Score of fungicidal activity, C. PUTEANA: 3 (75% of growth compared to untreated control)
Coniophora puteana; 10 ppm, Table 6B
  Score of fungicidal activity, C. PUTEANA: 0
Trichoderma viride; 10 ppm, Table 6B
  Score of fungicidal activity, T. VIRIDE: 3 (75% of growth compared to untreated control)
Flavobacterium sp.; 10 ppm in tryptose agar
  Score of bactericidal activity, Flavobacter: 1
Flavobacterium sp.; 100 ppm in tryptose agar
  Score of bactericidal activity, Flavobacter: 2
Chaetomium globosum; 10 ppm, Table 6B
  Score of fungicidal activity, C. GLOBOSUM: 4
Penicillium islandicum; 10 ppm, Table 6B
  Score of fungicidal activity, P. ISLANDICUM: 2 (50% of growth compared to untreated control)
Coriolus versicolor; 10 ppm
  Score of fungicidal activity, G. VERSICLOR: 2 (50% of growth compared to untreated control)

## CCOc1ccc(C2=NOCC[S+]2C)cc1 (stereo not shown) [Compound 28]
Bacillus cereus mycoides; 10 ppm in tryptose agar
  Score of bactericidal activity, B. cereus mycoides: 1
Bacillus cereus mycoides; 100 ppm in tryptose agar
  Score of bactericidal activity, B. cereus mycoides: 2
Aureobasidium pullulans; 10 ppm, Table 6B
  Score of fungicidal activity, A. PULLULANS: 4
Pseudomonas alcaligenes
  Score of bactericidal activity, P. alcalgenes: 0
Mucor sp.; 100 ppm, Table 6B
  Score of fungicidal activity, MUCOR SP: 1 (25% of growth compared to untreated control)
Coniophora puteana; 10 ppm, Table 6B
  Score of fungicidal activity, C. PUTEANA: 0
Trichoderma viride; 10 ppm, Table 6B
  Score of fungicidal activity, T. VIRIDE: 3 (75% of growth compared to untreated control)
Flavobacterium sp.; 10 ppm in tryptose agar
  Score of bactericidal activity, Flavobacter: 0
Flavobacterium sp.; 100 ppm in tryptose agar
  Score of bactericidal activity, Flavobacter: 2
Chaetomium globosum; 10 ppm, Table 6B
  Score of fungicidal activity, C. GLOBOSUM: 4
Penicillium islandicum; 10 ppm, Table 6B
  Score of fungicidal activity, P. ISLANDICUM: 4
Coriolus versicolor; 10 ppm
  Score of fungicidal activity, G. VERSICLOR: 3 (75% of growth compared to untreated control)

## COC(=O)c1cccc(C2=NOCC[S+]2[O-])c1 (stereo not shown) [Compound 26]
Bacillus cereus mycoides; 10 ppm in tryptose agar
  Score of bactericidal activity, B. cereus mycoides: 2
Bacillus cereus mycoides; 100 ppm in tryptose agar
  Score of bactericidal activity, B. cereus mycoides: 2
Aureobasidium pullulans; 10 ppm, Table 6B
  Score of fungicidal activity, A. PULLULANS: 4
Pseudomonas alcaligenes
  Score of bactericidal activity, P. alcalgenes: 0
Mucor sp.; 100 ppm, Table 6B
  Score of fungicidal activity, MUCOR SP: 2 (50% of growth compared to untreated control)
Coniophora puteana; 10 ppm, Table 6B
  Score of fungicidal activity, C. PUTEANA: 4
Trichoderma viride; 10 ppm, Table 6B
  Score of fungicidal activity, T. VIRIDE: 3 (75% of growth compared to untreated control)
Flavobacterium sp.; 10 ppm in tryptose agar
  Score of bactericidal activity, Flavobacter: 0
Flavobacterium sp.; 100 ppm in tryptose agar
  Score of bactericidal activity, Flavobacter: 2
Chaetomium globosum; 10 ppm, Table 6B
  Score of fungicidal activity, C. GLOBOSUM: 4
Penicillium islandicum; 10 ppm, Table 6B
  Score of fungicidal activity, P. ISLANDICUM: 4
Coriolus versicolor; 10 ppm
  Score of fungicidal activity, G. VERSICLOR: 4

## C[S+]1CCON=C1c1cc(Cl)cc(Cl)c1 (stereo not shown) [Compound 19]
Bacillus cereus mycoides; 10 ppm in tryptose agar
  Score of bactericidal activity, B. cereus mycoides: 0
Bacillus cereus mycoides; 100 ppm in tryptose agar
  Score of bactericidal activity, B. cereus mycoides: 2
Aureobasidium pullulans; 10 ppm, Table 6B
  Score of fungicidal activity, A. PULLULANS: 3 (75% of growth compared to untreated control)
Pseudomonas alcaligenes
  Score of bactericidal activity, P. alcalgenes: 0
Mucor sp.; 100 ppm, Table 6B
  Score of fungicidal activity, MUCOR SP: 2 (50% of growth compared to untreated control)
Coniophora puteana; 10 ppm, Table 6B
  Score of fungicidal activity, C. PUTEANA: 3 (75% of growth compared to untreated control)
Trichoderma viride; 10 ppm, Table 6B
  Score of fungicidal activity, T. VIRIDE: 2 (50% of growth compared to untreated control)
Flavobacterium sp.; 10 ppm in tryptose agar
  Score of bactericidal activity, Flavobacter: 0
Flavobacterium sp.; 100 ppm in tryptose agar
  Score of bactericidal activity, Flavobacter: 2
Chaetomium globosum; 10 ppm, Table 6B
  Score of fungicidal activity, C. GLOBOSUM: 0
Penicillium islandicum; 10 ppm, Table 6B
  Score of fungicidal activity, P. ISLANDICUM: 0
Coriolus versicolor; 1 ppm
  Score of fungicidal activity, G. VERSICLOR: 2 (50% of growth compared to untreated control)
Coriolus versicolor; 10 ppm
  Score of fungicidal activity, G. VERSICLOR: 0

## [O-][S+]1CCON=C1c1ccc(Cl)c(Cl)c1 (stereo not shown) [Compound 4]
Bacillus cereus mycoides; 10 ppm in tryptose agar
  Score of bactericidal activity, B. cereus mycoides: 2
Bacillus cereus mycoides; 100 ppm in tryptose agar
  Score of bactericidal activity, B. cereus mycoides: 2
Aureobasidium pullulans; Test dosage 10 ppm, Table 6A
  Score of fungicidal activity, A. PULLULANS: 2 (50% of growth compared to untreated control)
Pseudomonas alcaligenes
  Score of bactericidal activity, P. alcalgenes: 1
Coniophora puteana; Test dosage 10 ppm, Table 6A
  Score of fungicidal activity, C. PUTEANA: 0
Trichoderma viride; Test dosage 10 ppm, Table 6A
  Score of fungicidal activity, T. VIRIDE: 1 (25% of growth compared to untreated control)
Flavobacterium sp.; 100 ppm in tryptose agar
  Score of bactericidal activity, Flavobacter: 2
Chaetomium globosum; Test dosage 10 ppm, Table 6A
  Score of fungicidal activity, C. GLOBOSUM: 0
Penicillium islandicum; Test dosage 10 ppm, Table 6A
  Score of fungicidal activity, P. ISLANDICUM: 0
Coriolus versicolor
  Score of fungicidal activity, C. VERSICLOR: 0
